According to patent US12553028B2, “Method to generate induced oligodendrocyte-lineage cells and treatment using such cells” (ACADEMIA SINICA, priority 2018, dated 2026):
“Also recorded” adds a separate entry of the source.

Experiments:
[1] = test system: human primary skin fibroblasts; assay: Generation of induced OLGs from skin fibroblasts by chemical treatment (morphology / conversion); assay type: cell-based; details: for morphology of induced OLGs when replacing VPA: replaces VPA at the first step induction, compared to the original cocktail
Description: (§1) Cells (1×10^4) were plated on each well of a 24-well plate. Culture in HG-DMEM (Life technologies) supplement with 10% fetal bovine serum (FBS) (Hyclone) for 2 days, replace the medium with Knockout medium supplement with 1% N2 supplement, 1% Albumax, 1% NEAA (treatment medium, all form Life technologies) or DMEM/F12 with 1% N2, 1% B27, 20 ng/mL PDGF-AA, EGF, bFGF and 10 ng/mL NT3 and added the different treatment chemical compound cocktails, The final condition are 3 mM Valproic acid for 2 days, 10 μM Y27632, 10 μM SU9516, 10 μM Forskolin (FSK) (Tocris) for 1 days; or 10 μM Mocetinostat or Pracinostat for 2 days, 10 μM Y27632, 10 μM SU9516, 10 μM Forskolin (FSK) (Tocris) for 1 days.

[2] = test system: human primary skin fibroblasts; assay: Immunofluorescence assay of oligodendrocyte markers on induced cells; assay type: cell-based
Description: as §1
The induced OLGs were fixed with 4% formaldehyde for […] at room temperature. After washing with 1×PBS, cells were permeabilized with 0.03% Triton X-100 for 5 min. The cells were washed twice with 1×PBS, and then were incubated with primary antibodies [against Olig2 antibody (1:100; Merck millipore), Nkx2.2 (1:100; Stanta Cruz), O4 antibody (1:100; Merck millipore), MBP antibody (1:100; Proteintech), PDGFRα antibody (1:100; R&D systems)] and 4′,6-diamidino-2-phenylindole (DAPI) (1:1500; Life technologies) in blocking buffer (0.02% BSA in PBS) for overnight at 4° C. Cells were washed twice in 1×PBS, followed by an incubation in CF555 goat anti-rabbit secondary antibody (1:200; Life technologies), CF488 goat anti-rabbit secondary antibody (1:200; Biotium), CF555 goat anti-mouse secondary antibody (1:200; Life technologies), CF488 goat anti-mouse secondary antibody (1:200; Biotium), CF555 goat anti-rat secondary antibody (1:200; Life technologies) in blocking buffer for 1 hr in the dark at room temperature. Cells were washed twice in 1×PBS, and the cells will be keeping in 1×PBS. Fluorescence was analyzed by using a fluorescence microscope. The fluorescence intensity of each image was analyzed by an image analysis software (Image-Pro plus 4.5 software, MD, USA). Each immunofluorescence image was quantified more than 300 cells per field.

C=C[C@@]1(C)CC(=O)[C@]2(O)[C@@]3(C)[C@@H](O)CCC(C)(C)[C@@H]3[C@H](O)[C@H](OC(C)=O)[C@@]2(C)O1 [forskolin, (3R,4aR,5S,6S,6aS,10S,10aR, 10bS)-6,10,10b-Trihydroxy-3,4a,7,7,10a-pentamethyl-1-oxo-3-vinyldodecahydro-1H-benzo[f]chromen-5-yl acetate]
promotion of the conversion (screen for supporting factors) ([1]; screen of 22 drugs on the YSG cocktail after pre-treating with VPA): significantly promoted the conversion

C[C@@H](N)[C@H]1CC[C@H](C(=O)Nc2ccncc2)CC1 [Y27632, Trans-4-[(1R)-1-Aminoethyl]-N-(4-pyridinyl)cyclohexane-carboxamide]
morphological change of fibroblasts [1]: dendritic-like morphological change

CCCCc1nc2cc(/C=C/C(=O)NO)ccc2n1CCN(CC)CC [Pracinostat, (E)-3-(2-butyl-1-(2-(diethylamino)ethyl)-1H-benzo[d]imidazol-5-yl)-N-hydroxyacrylamide]
morphology of induced OLGs when replacing VPA [1]: more mature oligodendroglia morphology
MBP expression (immunofluorescence) [2]: expressed; also recorded: stronger expression
O4 expression (immunofluorescence) [2]: expressed; also recorded: stronger expression

Nc1ccccc1NC(=O)c1ccc(CNc2nccc(-c3cccnc3)n2)cc1 [Mocetinostat, N-(2-aminophenyl)-4-((4-(pyridin-3-yl)pyrimidin-2-ylamino)methyl)benzamide]
morphology of induced OLGs when replacing VPA [1]: more mature oligodendroglia morphology
MBP expression (immunofluorescence) [2]: expressed; also recorded: stronger expression
O4 expression (immunofluorescence) [2]: expressed; also recorded: stronger expression

COc1ccc2c(c1)c(C1=C(c3c[nH]c4ccccc34)C(=O)NC1=O)cn2CCCN(C)C [Go6983, 3-{1-[3-(Dimethylamino)propyl]-5-methoxy-1H-indol-3-yl}-4-(1H-indol-3-yl)-1H-pyrrole-2,5-dione]
conversion of fibroblasts into OLG like cells [1]: dispensable for the conversion process
dendrite-like formation ([1]; Go6983 together with Y27632 and SU9516): promoted the dendrite-like formation

COc1ccc2c(c1)/C(=C/c1cnc[nH]1)C(=O)N2 [SU9516, (Z)-3-((1H-imidazol-5-yl)methylene)-5-methoxyindolin-2-one]
morphological change of fibroblasts [1]: domed-shape formation

CCCC(CCC)C(=O)O [valproic acid, 2-Propylpentanoic acid]
reprogramming efficiency ([1]; pretreating for 2 days before Y27632, SU9516, Go6983): enhance the reprogramming efficiency
